Assay [1] has as its system His-eIF4GI HEAT-1. The assay is described as follows: cobalt affinity pull-down, GST-VPg C-terminal fusions as prey (Fig 4B-E). In kind it is binding, human. To be noted: for % binding (relative to WT) / Bait/Prey / Prey/Bait: Figure 4E; for % binding (relative to WT): ImageJ quantification; for Bait/Prey / Prey/Bait: band density ratio, ImageJ; for binding to His-eIF4GI HEAT-1 in cobalt pull-down: bait 2.6 µM, GST-VPg fusions 1.5 µM; for binding to His-eIF4GI HEAT-1 in cobalt pull-down / binding to His-eIF4GI HEAT-1, % of wild-type: 25 mM MES, 150 mM NaCl, pH 6.5; for binding to His-eIF4GI HEAT-1, % of wild-type: quantification of pull-down, Fig 4E.

Assay [2] concerns His-tagged MNV VPg(1–124). Put plainly: cobalt affinity pull-down, eIF4GI HEAT-1 mutants as prey (Fig 5D-E).
For assay [3], the target named is His-eIF4GI HEAT-1. Put plainly: cobalt affinity pull-down, SDS PAGE band quantification. To be noted: parent: est. 100; read off a plot.

With D110A, the “% binding (relative to WT)” value is 71.5502% in assay [1] (repeat 1, 2014-07-24); 69.0469% in assay [1] (repeat 2, 2014-07-25); 77.4561% in assay [1] (repeat 3, 2014-07-25); 83.3957% in assay [1] (repeat 4, 2014-07-31). Besides, the Bait/Prey in assay [1] (repeat 1, 2014-07-24) was 3.801; in assay [1] (repeat 2, 2014-07-25), 2.646; in assay [1] (repeat 3, 2014-07-25), 2.312; in assay [1] (repeat 4, 2014-07-31), 2.418. For the same substance, the Prey/Bait in assay [1] (repeat 1, 2014-07-24) was determined as 0.2631; in assay [1] (repeat 2, 2014-07-25), 0.3779; in assay [1] (repeat 3, 2014-07-25) it was 0.4326; in assay [1] (repeat 4, 2014-07-31), 0.4136. Besides, the “binding to His-eIF4GI HEAT-1 in cobalt pull-down” value (“binding … in cobalt pull-down” below) in assay [1] is given as “capable of binding eIF4GI HEAT-1”. Moreover, in assay [1], the “binding to His-eIF4GI HEAT-1, % of wild-type” value is recorded as 60–80%.

Turning to E913R, the “Relative density normalised to WT (%)” value in assay [2] (150 mM NaCl, experiment 1) is recorded as 72.7%; in assay [2] (150 mM NaCl, experiment 2), 89.6%; in assay [2] (150 mM NaCl, experiment 3), 82.8%; in assay [2] (300 mM NaCl, experiment 1), 49.0%; in assay [2] (300 mM NaCl, experiment 2), 56.0%.

As for GST-MNV VPg(102–124) D110A, the percent of parent (% of WT (normalised OD ratio)) in assay [3] is 75.

Take GST-MNV VPg(102–124) F123A: the percent of parent (% of WT (normalised OD ratio)) in assay [3] stood at 6.

Take GST-MNV VPg(102–124) K120A: in assay [3], the percent of parent (% of WT (normalised OD ratio)) is 90.

GST-MNV VPg(102–124) R113A: the percent of parent (% of WT (normalised OD ratio)) in assay [3] worked out at 64.

With GST-MNV VPg(102–124) V115A, in assay [3], the percent of parent (% of WT (normalised OD ratio)) came out at 3.

On to K120A, for which the “% binding (relative to WT)” value was 102.078% in assay [1] (repeat 1, 2014-07-24); 80.9274% in assay [1] (repeat 2, 2014-07-25); 85.5916% in assay [1] (repeat 3, 2014-07-25); 78.1139% in assay [1] (repeat 4, 2014-07-31); 78.74% in assay [1] (repeat 7, 2015-08-05). Besides, the Bait/Prey is given as 2.664 in assay [1] (repeat 1, 2014-07-24); 2.258 in assay [1] (repeat 2, 2014-07-25); 2.092 in assay [1] (repeat 3, 2014-07-25); 2.581 in assay [1] (repeat 4, 2014-07-31); 4.118 in assay [1] (repeat 7, 2015-08-05). Further, the Prey/Bait in assay [1] (repeat 1, 2014-07-24) was determined as 0.3754; in assay [1] (repeat 2, 2014-07-25), 0.4429; in assay [1] (repeat 3, 2014-07-25) it was 0.478; in assay [1] (repeat 4, 2014-07-31), 0.3874; in assay [1] (repeat 7, 2015-08-05), 0.2428. Besides, the “binding … in cobalt pull-down” value in assay [1] is “appears to bind as effectively as the wild-type sequence”.

Consider R113A, for which the “% binding (relative to WT)” value in assay [1] (repeat 1, 2014-07-24) worked out at 63.4705%; in assay [1] (repeat 2, 2014-07-25), 60.4116%; in assay [1] (repeat 3, 2014-07-25), 58.2069%; in assay [1] (repeat 4, 2014-07-31), 76.2941%. Besides, the Bait/Prey in assay [1] (repeat 1, 2014-07-24) is 4.285; in assay [1] (repeat 2, 2014-07-25), 3.025; in assay [1] (repeat 3, 2014-07-25), 3.0762; in assay [1] (repeat 4, 2014-07-31), 2.643. Further, the Prey/Bait in assay [1] (repeat 1, 2014-07-24) amounted to 0.2334; in assay [1] (repeat 2, 2014-07-25), 0.3306; in assay [1] (repeat 3, 2014-07-25), 0.3251; in assay [1] (repeat 4, 2014-07-31), 0.3784. Also, the “binding … in cobalt pull-down” value in assay [1] was “capable of binding eIF4GI HEAT-1”. Further, in assay [1], the “binding to His-eIF4GI HEAT-1, % of wild-type” value is 60–80%.

Source of the values: publication PMC4703368, “A Conserved Interaction between a C-Terminal Motif in Norovirus VPg and the HEAT-1 Domain of eIF4G Is Essential for Translation Initiation” (PLoS Pathogens, 2016).
